Measured values as given in patent US10723727B2, “Tubulysin analogs and methods for their preparation” (priority 2016, dated 2020).

Key:
[1] = target: T1, tubulin/RB3-stathmin-like-domain (RB3-SLD-tdm) complex (Sus scrofa, UniProt P02550+P02554); experiment: Tubulin Peptide-Binding Site Competition Assay (fluorescence polarization); design: species or system Porcine; conditions: FP competition with BODIPY-labeled vinca peptide probe; read after five hours at 22° C.; read-out: Tubulin Peptide-Binding Site Competition Assay IC50
T1 construct: purchased Cytoskeleton, Inc. T240; host or cells: RB3-SLD was made in house in E. coli
In short: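 The BODIPY vinca-peptide probe was premixed with test compound and then added to porcine tubulin/RB3-SLD, at final concentrations of 3 nM probe, 6 nM tubulin and 100 nM RB3-SLD. The buffer was PIPES pH 7.0 with Tween 20, MgCl2 and EGTA, and 11-point dilutions were run in duplicate. IC50 was fitted from the fluorescence polarization decrease and converted to Ki.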

[2] = tested on: MDA-MB-361-DYT2 (breast cancer) cells; experiment: In vitro cell assay (MTS cell viability), MDA-MB-361-DYT2; type: cell-based; conditions: 96 h, free compounds; 96 hours after treatment
In short: (§1)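 Cells seeded 24 h before treatment with antibody-drug conjugates or free compounds, 3-fold serial dilutions at 10 concentrations in duplicate. Viability read by MTS assay 96 h after treatment as % of untreated control; IC50 from four-parameter logistic fit.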

HT-29 cells = experiment: In vitro cell assay (MTS cell viability), HT-29 (target non-expressing); type: cell-based; conditions: Homo sapiens, HT-29, 96 h, free compounds; 96 hours after treatment; read-out: HT29 IC50
In short: as §1

[3] = tested on: N87 (gastric cancer) cells; experiment: In vitro cell assay (MTS cell viability), N87; type: cell-based; conditions: 96 h, free compounds; 96 hours after treatment
In short: as §1

Structure (SMILES)	IC50 [1] [nM]	IC50 [2] [nM]	IC50 (HT-29 cells) [nM]	IC50 [3] [nM]
CCNC(=O)O[C@H](C[C@H](C(C)C)N(C)C(=O)[C@@H](NC(=O)[C@@]1(C)CCCN1C)[C@@H](C)CC)c1nc(C(=O)N[C@@H](Cc2ccc(N)cc2)C[C@H](C)C(=O)O)cs1 [#B21, 1,2-dimethyl-D-prolyl-N-{(1R,3R)-1-(4-{[(2R,4S)-1-(4-aminophenyl)-4-carboxypentan-2-yl]carbamoyl}-1,3-thiazol-2-yl)-1-[(ethylcarbamoyl)oxy]-4-methylpentan-3-yl}-N-methyl-L-isoleucinamide]	1.9	1.93	1.62	1.87
CC[C@H](C)[C@H](NC(=O)[C@H](NC)C(C)C)C(=O)N(C)[C@H](C[C@@H](OC(C)=O)c1nc(C(=O)N[C@@H](Cc2ccccc2)C[C@H](C)C(=O)O)cs1)C(C)C [#B12, N-methyl-D-valyl-N-[(1R,3R)-1-(acetyloxy)-1-(4-{[(2R,4S)-4-carboxy-1-phenylpentan-2-yl]carbamoyl}-1,3-thiazol-2-yl)-4-methylpentan-3-yl]-N-methyl-L-isoleucinamide]	< 0.458	2.97	4.52	2.98
